Data taken from publication PMC3254626, “Targeting RNA Polymerase Primary σ^70 as a Therapeutic Strategy against Methicillin-Resistant Staphylococcus aureus by Antisense Peptide Nucleic Acid” (PLoS ONE, 2012).
≈ marks a conversion by molar mass, not a printed value. Like-named read-outs stand apart in the source and are kept apart here. Square brackets hold non-standard residues; d marks the D form. Peptide text beside a SMILES is read from it. Ahx = NCCCCCC(=O)O; βAla = NCCC(=O)O

Tests used:
Assay in all cases: microbe, parasite or virus in culture
Type in all cases: cell-based, Staphylococcus aureus
MRSA WHO-2 = details: read-out: MIC for S. aureus strains, WHO-2
Text: (§1) Secondary structure of rpoD mRNA predicted by RNA structure 4.6 software. […] Building from evidence that 12-base antisense PNAs was an effective length, five plausible target sites located in the region that satisfied both above aspects were chosen for synthesis of complementary antisense PNAs at 12-base length. Effective target site in rpoD was verified by modified MIC test of PPNA in four S. aureus strains with different characteristics in resistance phenotype. All PNAs used are covalently conjugated with the same cell penetrating peptide (KFF)3K at the carbon terminus (corresponding to the 3′ end of a conventional oligonucleotide).
(§2) Optimal anti-rpoD PPNA was selected by minimal inhibitory concentration (MIC) results determined for clinical isolates of pathogenic S. aureus species.
(§3) MICs were determined twice by the microdilution assay in sterilized 96-well polypropylene microtiter plates according to the broth microdilution guideline based on Good et al.. Briefly, single colony overnight culture of subjected bacterial cells was diluted to give a final inoculation at 10^5 CFU/mL in duplicate 100 µL Mueller Hinton (MH) broth in a low-binding 96-well microtiter plate. Stocks of PPNA, Scr PPNA and CPPs were added immediately to the indicated final concentrations. Plates were incubated at 35°C in aerobic environment for 24 h of overnight culture. MICs were the lowest PNA concentrations that prevented bacterial growth by visual inspection after overnight (24 h) growth. To verify the specific antisense effect, peptide was also conjugated to a scrambled PNA with a base sequence that was not complementary to the selected target site of rpoD mRNA. To control for nonspecific toxicity, the MIC of the control CPPs (KFF)3K and (RXR)4XB in all cases, was above the limit of measurement, which was 60 or 30 µM.

[1] = test system: MRSA XIJING (MDR clinical isolate); details: broth microdilution, MH broth, inoculum 10^5 CFU/mL, 35°C, 24 h, visual inspection, determined twice, read-out: MIC for S. aureus strains, XIJING
Text: as §1, §2, §3

MRSA/VISA Mu50 = details: broth microdilution, MH broth, inoculum 10^5 CFU/mL, 35°C, 24 h, visual inspection, determined twice, read-out: MIC for S. aureus strains, Mu 50
Text: as §1, §2, §3

S. aureus ATCC29213 = details: read-out: MIC for S. aureus strains, ATCC 29213
Text: as §1, §2, §3

[2] = Staphylococcus aureus, broth microdilution, MH broth, inoculum 10^5 CFU/mL, 35°C, 24 h, visual inspection, determined twice, MRSA
[3] = Staphylococcus aureus, ATCC29213, broth microdilution, MH broth, inoculum 10^5 CFU/mL, 35°C, 24 h, visual inspection, determined twice, antibiotic sensitive QC strain

| SMILES | MIC (MRSA WHO-2; WHO-2, 24 h) | MIC [1] | MIC (MRSA/VISA Mu50) | MIC (S. aureus ATCC29213; ATCC29213, 24 h) | MIC (MRSA WHO-2; broth microdilution, MH broth, inoculum 10^5 CFU/mL, 35°C, 24 h, visual inspection, determined twice, MRSA) | MIC (S. aureus ATCC29213; broth microdilution, MH broth, inoculum 10^5 CFU/mL, 35°C, 24 h, visual inspection, determined twice, antibiotic sensitive QC strain) | MIC (MRSA WHO-2; [2]) | MIC ([1]; Staphylococcus aureus) | MIC (MRSA/VISA Mu50; Staphylococcus aureus) | MIC (S. aureus ATCC29213; [3]) |
| --- | --- | --- | --- | --- | --- | --- | --- | --- | --- | --- |
| NCCCC[C@H](NC(=O)[C@H](Cc1ccccc1)NC(=O)[C@H](Cc1ccccc1)NC(=O)[C@H](CCCCN)NC(=O)[C@H](Cc1ccccc1)NC(=O)[C@H](Cc1ccccc1)NC(=O)[C@H](CCCCN)NC(=O)[C@H](Cc1ccccc1)NC(=O)[C@H](Cc1ccccc1)NC(=O)[C@@H](N)CCCCN)C(=O)O [(KFF)3K] (H-KFFKFFKFFK-OH) | >60 µM | – | – | >60 µM | – | – | – | – | – | – |
| CC1(C)S[C@@H]2[C@H](NC(=O)[C@H](N)c3ccccc3)C(=O)N2[C@H]1C(=O)O [ampicillin] | – | – | – | – | – | – | 256 µM (≈ 89.4 µg/mL) | > 1020 µM | > 1020 µM | 1 µM (≈ 0.349 µg/mL) |
| Cc1onc(-c2ccccc2)c1C(=O)N[C@@H]1C(=O)N2[C@@H]1SC(C)(C)[C@@H]2C(=O)O [oxacillin] | – | – | – | – | – | – | 512 µM (≈ 206 µg/mL) | > 1020 µM | > 1020 µM | 0.5 µM (≈ 0.201 µg/mL) |

The next lines start with results.

| MIC (MRSA WHO-2; WHO-2, 24 h) | MIC [1] | MIC (MRSA/VISA Mu50) | MIC (S. aureus ATCC29213; ATCC29213, 24 h) | MIC (MRSA WHO-2; broth microdilution, MH broth, inoculum 10^5 CFU/mL, 35°C, 24 h, visual inspection, determined twice, MRSA) | MIC (S. aureus ATCC29213; broth microdilution, MH broth, inoculum 10^5 CFU/mL, 35°C, 24 h, visual inspection, determined twice, antibiotic sensitive QC strain) | SMILES | MIC (MRSA WHO-2; [2]) | MIC ([1]; Staphylococcus aureus) | MIC (MRSA/VISA Mu50; Staphylococcus aureus) | MIC (S. aureus ATCC29213; [3]) |
| --- | --- | --- | --- | --- | --- | --- | --- | --- | --- | --- |
| > 30 µM | > 30 µM | > 30 µM | > 30 µM | – | – | N=C(N)NCCC[C@H](NC(=O)CCCCCNC(=O)[C@H](CCCNC(=N)N)NC(=O)[C@H](CCCNC(=N)N)NC(=O)CCCCCNC(=O)[C@H](CCCNC(=N)N)NC(=O)[C@H](CCCNC(=N)N)NC(=O)CCCCCNC(=O)[C@H](CCCNC(=N)N)NC(=O)[C@H](CCCNC(=N)N)NC(=O)CCCCCNC(=O)[C@@H](N)CCCNC(=N)N)C(=O)NCCCCCC(=O)NCCC(=O)O [(RXR)4XB] (H-R[Ahx]RR[Ahx]RR[Ahx]RR[Ahx]R[Ahx][βAla]-OH) | – | – | – | – |
| – | >1024 µM | 1024 µM (≈ 560 µg/mL) | – | 256 µM (≈ 140 µg/mL) | 8 µM (≈ 4.37 µg/mL) | CC(C)(O/N=C(\C(=O)N[C@@H]1C(=O)N2C(C(=O)[O-])=C(C[n+]3ccccc3)CS[C@H]12)c1csc(N)n1)C(=O)O [ceftazidine] | – | – | – | – |
